From patent US12048737B2, “Use of a vaccine targeting a cryptic tert epitope, for treating cancer in a HLA-A*0201-positive patient having a non-immunogenic tumor expressing tert” (KRIPTIC PHARMACEUTICALS LIMITED, priority 2017, dated 2024)

System: TERT572 peptide
Test: IFNg ELISpot immunomonitoring of vaccine induced TERT572 specific immune response in PBMC
Assay type: cell-based, human

Vx-001: vaccine composed of two nine amino acid peptides, TERT572 and TERT572Y, administered separately with the adjuvant Montanide ISA51 VG (chain 1 RLFFYRKSV; chain 2 YLFFYRKSV; Montanide ISA51 VG adjuvant; peptide from a human protein; optimized peptide)
Patients who mounted a TERT572 specific immune response (75 Vx-001 treated patients measured at least at W6, W18 or thereafter): 29.3%
Patients with TERT572 specific immune response (non-squamous (NSQ) NSCLC): 36%
Frequency of patients with vaccine-induced immune response (patients with natural immunity against TERT572): 15%
Frequency of patients with vaccine-induced immune response (patients without natural immunity against TERT572): 36.2%
Patients with TERT572 specific immune response (squamous (SQ) NSCLC): 13.3%
